Several values for one entry are separate records, joined by “and”; a condition that tells them apart may be missing. Equal entries are not always repeated. Where two headings read alike, the source gives them in different places.
Legend:
[1] = system: MB002 group 3 medulloblastoma cells; assay: CellTiter-Glo dose-response growth assay; format: cell-based; settings: day 3; read-out: d3 IC50 MB002
Summary of the method: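 MB002 group 3 medulloblastoma cells were seeded in growth media at 500 cells/well in a 384-well plate, exposed to a range of compound concentrations, and incubated for the indicated time. Viability was then measured by CellTiter-Glo following the manufacturer's instructions, with plates read on an Envision 2104 microplate reader to produce dose-response growth curves.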

[2] = system: HDMB03 (HDMBO3) group 3 medulloblastoma cells; assay: CellTiter-Glo dose-response growth assay; format: cell-based
Summary of the method: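 HDMB03 group 3 medulloblastoma cells were plated in growth media at 500 cells/well in a 384-well plate, treated with compound, and incubated for the noted timepoint. Viability was then measured by CellTiter-Glo following the manufacturer's instructions, with plates read on an Envision 2104 microplate reader to generate dose-response growth curves.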

[3] = system: HDMB03 (HDMBO3) cells; assay: ERCC spike-in RNAseq gene expression after 6 h treatment; format: cell-based; settings: HDMBO3, replicate values, Supplementary Fig 6c
Description: (§1) First, we examined global changes in gene expression induced by drug treatment.
(§2) External RNA consortium control RNAs (ERCC, Ambion) were added directly to Trizol, based on cell number prior to RNA extraction. RNA samples were treated with DNAse I (Invitrogen) prior to recovery. Samples were obtained in biological triplicate. Total RNA was subjected to ribosomal RNA depletion prior to library preparation using the Truseq Stranded Total Library Prep Kit (Illumina) and sequencing on a Nextseq-500 (paired end, 100 bp reads).
(§3) Sequences were aligned using HISAT2 (version 2.1.0)[77] in paired-end mode with default parameters to build version hg19 of the human genome to which the sequences of the ERCC synthetic spike-in RNAs (http://tools.invitrogen.com/downloads/ERCC92.fa) had been added. Per-gene expression was quantified using htseq-count[78] with parameters “-i gene_id --stranded=reverse -f bam -m,” and version 87 of the canonical GRCh37 gene list from RefSeq to which ERCC coordinates were added. TPM-normalized (Transcripts Per Million) expression was then computed for each gene and synthetic ERCC spike-in RNA. Per-gene exon length was calculated across all exons of all isoforms of each gene. The standard TPM-normalization strategy is: normterm = sum of (read count * read length/exon length) across all genes. TPM = read count * read length/exon length * 1e6/normterm. We used a loess regression to normalize the TPM values across all samples of the batch, using only the spike-in values to fit the loess by the “affy” R package[79] with function loess.normalize. This function allowed us to perform loess regression on a matrix of TPM values and used the ERCC subset of data for fitting the loess. The output from this was a matrix of normalized TPM values controlled by ERCC spike-ins.
(§4) We used the elbow method[81] to determine the k value in k-means cluster analysis.
(§5) Dependency analysis was performed using the 22Q4 release of the DepMap dataset, comprising seven medulloblastoma cell lines: UW228, DAOY, ONS76, D458, D425, D283MED, D341MED. Dependency was defined as a Chronos gene effect score of <−0.5, and gene lists were filtered for dependency in >2/7 medulloblastoma cell lines. […] PANTHER was used to define gene annotations, with unknown annotations assigned using individual assessment using the Genecards.org resource.

[4] = system: MB002 cells; assay: as above; format: cell-based; settings: MB002, replicate values, Supplementary Fig 6c
Description: as §1, §2, §3, §4, §5

[5] = target: T1, BRD4-BD1 (BRD4-1) (Homo sapiens, UniProt O60885); assay: Differential scanning fluorimetry (DSF) thermal shift; format: binding; settings: DSF; for ∆Tm (°C) BRD4-1: 5 μM protein, 100 μM compound, three independent experiments, average ± SD; for ΔTm (°C) BRD4-BD1: Figure 3A
T1 construct: BRD4-BD1 (residues 44-168); 6xHis (cleaved yes); host or cells: E. coli BL21 (DE3) RIL
Summary of the method: (§6)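 Thermal shift of 5 μM E. coli-expressed bromodomain with 100 μM compound in 50 mM HEPES pH 7.5, 150 mM NaCl, 2 mM DTT, 2% DMSO, 5X SYPRO Orange, quadruplicate. Heated 25→95 °C at 1 °C/min, fluorescence at 610 nm; ΔTm relative to DMSO reference wells.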

[6] = target: T2, EP300 bromodomain (Homo sapiens, UniProt Q09472); assay: as above; format: binding; settings: DSF; for ∆Tm (°C) EP300: 5 μM protein, 100 μM compound, three independent experiments, average ± SD; for ΔTm (°C) EP300: Figure 3B
T2 construct: 6xHis (cleaved yes); host or cells: E. coli BL21 (DE3) RIL
T2 sequence (Q09472 1048-1161): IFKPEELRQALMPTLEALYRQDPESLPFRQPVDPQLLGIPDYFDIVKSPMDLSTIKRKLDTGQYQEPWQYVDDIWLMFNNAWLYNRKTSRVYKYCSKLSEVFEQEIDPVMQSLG
Summary of the method: as §6

[7] = system: CBP bromodomain; assay: as above; format: binding; settings: ΔTm (CBP)/ΔTm(BRD4)
[8] = target: T3, CBP bromodomain (Homo sapiens, UniProt Q92793); assay: as above; format: binding; settings: for ∆Tm (°C) CBP / ΔTm (°C) CBP: DSF; for ∆Tm (°C) CBP: 5 μM protein, 100 μM compound, three independent experiments, average ± SD; for DSF ΔTm (°C): Figure 3C, DSF (values equal CBP column)
T3 construct: CBP (residues 1081-1197); 6xHis (cleaved yes); host or cells: E. coli BL21 (DE3) RIL
T3 sequence (Q92793 1081-1197): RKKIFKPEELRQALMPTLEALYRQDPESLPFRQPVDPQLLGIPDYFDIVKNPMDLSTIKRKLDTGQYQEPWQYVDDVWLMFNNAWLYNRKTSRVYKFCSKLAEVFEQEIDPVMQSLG

[9] = target: T1, BRD4-BD1 (BRD4-1); assay: Isothermal titration calorimetry (ITC); format: binding; settings: relative to CCS1477
Description: At OD600 of 0.6, the culture was cooled down to 18 °C and induced with 0.1 mM IPTG. After 18 h growth, the culture was harvested by centrifugation at 6000 × g for 25 min and stored at -80 °C. Harvested cell pellets were re-suspended in 50 mM Na/K phosphate buffer (pH 7.4) containing 100 mM NaCl, 40 mM imidazole, 0.01% w/v lysozyme and 0.01% v/v Triton X-100 at 4 °C for 1 h, subjected to sonication and the lysate was clarified by centrifugation (30,000 × g for 45 min at 4 °C). Proteins were purified by FPLC at 4 °C using columns and chromatography materials from GE Healthcare. […] Proteins were purified to homogeneity by size exclusion chromatography using Superdex 75 equilibrated with elution buffer (50 mM HEPES pH 7.5, 100 mM NaCl, 2 mM DTT). All BRDs eluted as monomeric protein and were of crystallization grade quality (>95% purity as judged by SDS-PAGE). Pool fractions were combined, concentrated to 10–12 mg/ml, and aliquots were flash-frozen in liquid N2 and stored at −80 °C.
All experiments were conducted using an PEAQ-ITC calorimeter (Malvern Scientific). BRDs were buffer exchanged using PD10 columns (GE life sciences) into 50 mM HEPES pH7.5 and 100 mM NaCl (ITC buffer) before the experiment and concentrated to ∼10 mg/mL. Experiments were carried out in ITC buffer while stirring at 750 rpm through reverse titration. The microsyringe (40 μL load volume) was loaded with the protein sample (250–600 μM protein in ITC buffer) and inserted into the calorimetric cell (0.2 mL cell volume) consisting of compound (20–60 μM in ITC buffer). All titrations were conducted using an initial control injection of 0.2 μL followed by 13 identical injections (~3 μL per injection) with a duration of 2 s (per injection) and a spacing of 150 s between injections. The ratio of protein/compound was optimized to ensure complete saturation of the titrant before the final injection to ensure proper baseline determination. Data were corrected for dilution and analyzed using the MicroCal Origin software to determine the enthalpies of binding (ΔH) and binding constants as described. Thermodynamic parameters were calculated using the basic equation of thermodynamics (ΔG = ΔH − TΔS = −RTlnKB) where ΔG, ΔH and ΔS are the changes in free energy, enthalpy and entropy of binding, respectively. A single binding site model was used for all ligand-protein interactions.

[10] = target: GFP-tagged CBP bromodomain (Homo sapiens, UniProt Q92793); assay: Microscale thermophoresis (MST); format: binding; settings: for Response (Dose Response Curve): MST raw response
Sequence of GFP-tagged CBP bromodomain (Q92793 1085-1192 limits assumed): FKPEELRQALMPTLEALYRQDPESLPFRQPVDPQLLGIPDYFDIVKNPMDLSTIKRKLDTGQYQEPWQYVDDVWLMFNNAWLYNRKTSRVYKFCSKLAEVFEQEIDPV
Description: MST experiments were performed in a Monolith NT.115 Pico instrument (NanoTemper Technologies) following published procedures. […] MST traces were recorded using standard parameters: 5 s MST power off, 30 s MST power on and 5 s MST power off. Measurements were taken at -1-0 s (cold region) and 10 s (hot region) and data were analyzed using the NTAnalysis software.

[11] = three independent MST experiments, average ± SD, read-out: Kd (nM) CBP

Cc1sc2c(c1C)C(c1ccc(Cl)cc1)=N[C@@H](CC(=O)OC(C)(C)C)c1nnc(C)n1-2 [JQ1]
IC50 [1]: 107 nM
IC50 ([2]; day 3, read-out: d3 IC50 HDMBO3): 100 nM
Normalized MYC expression [3]: 0.9657 and 0.7621 and 0.679
Normalized MYC expression [4]: 0.8713 and 1.005 and 0.8421

COC1CCC(n2c(C3CCCC(=O)N3)nc3cc(-c4c(C)noc4C)ccc32)CC1 (centres unmarked) [Compound 2]
∆Tm (°C) BRD4-1 [5]: 2.9 ± 0.11 °C
∆Tm (°C) BRD4-1 ([5]; listed as CCS1447int2): 2.9 °C
ΔTm (°C) BRD4-BD1 [5]: 2.9 °C
∆Tm (°C) EP300 [6]: 5.6 ± 0.12 °C
ΔTm (°C) EP300 [6]: 5.6 °C
Ratio CBP/BRD4 of ∆Tm [7]: 1.9
∆Tm (°C) CBP [8]: 5.6 ± 0.05 °C
∆Tm (°C) CBP ([8]; listed as CCS1447int2): 5.6 °C
ΔTm (°C) CBP ([8]; Figure 3A, CBP bromodomain): 5.6 °C
ΔTm (°C) CBP ([8]; Figure 3B, CBP): 5.6 °C
DSF ΔTm (°C) [8]: 5.6 °C
IC50 ([2]; HDMBO3 G3MB cell growth, read-out: IC50 (nM) HDMBO3): > 100000 nM
reduction of activity against BRD4 [9]: ~ 10 fold
Kd ([10]; MO.Affinity Analysis export, single runs, target clGFP-CBPBRD 5e-8, unit inferred, listed as CCS1477int2, read-out: Kd (fit result of individual MST run)): 1770 nM and 1540 nM and 2010 nM
Kd [10, 11]: 1770 ± 234 nM

COC1CCC(n2c(C3CCCC(=O)N3c3ccccc3)nc3cc(-c4c(C)noc4C)ccc32)CC1 (centres unmarked) [Compound 5]
∆Tm (°C) BRD4-1 [5]: 5.5 ± 0.17 °C
ΔTm (°C) BRD4-BD1 [5]: 5.5 °C
∆Tm (°C) EP300 [6]: 14.8 ± 0.45 °C
ΔTm (°C) EP300 [6]: 14.8 °C
Ratio CBP/BRD4 of ∆Tm [7]: 2.7
∆Tm (°C) CBP [8]: 14.6 ± 0.16 °C
ΔTm (°C) CBP ([8]; Figure 3A, CBP bromodomain): 14.6 °C
ΔTm (°C) CBP ([8]; Figure 3B, CBP): 14.6 °C
DSF ΔTm (°C) [8]: 14.6 °C
IC50 ([2]; Homo sapiens, HD-MB03, HDMBO3 G3MB cell growth, read-out: IC50 (nM) HDMBO3): 108 ± 25 nM
Response (Dose Response Curve) ([10]; Dose 1.52588e-10, single replicate run, listed as iCBP-5): 914.717 and 915.838
Response (Dose Response Curve) ([10]; Dose 3.05176e-10, single replicate run, listed as iCBP-5): 915.243 and 914.96
Response (Dose Response Curve) ([10]; Dose 6.10352e-10, single replicate run, listed as iCBP-5): 914.396 and 915.476
Response (Dose Response Curve) ([10]; Dose 1.2207e-9, single replicate run, listed as iCBP-5): 915.983 and 915.524
Response (Dose Response Curve) ([10]; Dose 2.44141e-9, single replicate run, listed as iCBP-5): 915.86 and 916.029
Response (Dose Response Curve) ([10]; Dose 4.88281e-9, single replicate run, listed as iCBP-5): 914.611 and 915.107
Response (Dose Response Curve) ([10]; Dose 9.76563e-9, single replicate run, listed as iCBP-5): 914.911 and 914.67
Response (Dose Response Curve) ([10]; Dose 1.95313e-8, single replicate run, listed as iCBP-5): 915.602 and 914.588
Response (Dose Response Curve) ([10]; Dose 3.90625e-8, single replicate run, listed as iCBP-5): 913.799 and 914.854
Response (Dose Response Curve) ([10]; Dose 7.8125e-8, single replicate run, listed as iCBP-5): 913.08 and 913.563
Response (Dose Response Curve) ([10]; Dose 1.5625e-7, single replicate run, listed as iCBP-5): 911.965 and 911.667
Response (Dose Response Curve) ([10]; Dose 3.125e-7, single replicate run, listed as iCBP-5): 909.591 and 910.599
Response (Dose Response Curve) ([10]; Dose 6.25e-7, single replicate run, listed as iCBP-5): 911.215 and 910.906
Response (Dose Response Curve) ([10]; Dose 1.25e-6, single replicate run, listed as iCBP-5): 911.169 and 911.287
Response (Dose Response Curve) ([10]; Dose 2.5e-6, single replicate run, listed as iCBP-5): 914.21 and 911.877
Response (Dose Response Curve) ([10]; Dose 5e-6, single replicate run, listed as iCBP-5): 912.484 and 912.12
Kd ([10]; MST, single replicate run, target clGFP-CBPBRD, TargetConcentration 5e-8, MST-Power Medium, unit inferred, read-out: Kd (Fit Results, Fit Model: Kd)): 16.1 nM and 33.7 nM
Bound (Fit Results) ([10]; fitted MST response of bound state, single replicate run, target clGFP-CBPBRD 5e-8, listed as iCBP-5): 911.766 and 911.236
Unbound (Fit Results) ([10]; fitted MST response of unbound state, single replicate run, target clGFP-CBPBRD 5e-8, listed as iCBP-5): 915.376 and 915.584
loss of binding affinity (CBP) ([10]; relative to CCS1477): ~ 10 fold
Kd [10, 11]: 31.4 ± 14.2 nM
